Source: publication PMC6668435, “The structural basis of N-acyl-α-amino-β-lactone formation catalyzed by a nonribosomal peptide synthetase” (Nature Communications, 2019)

Assays:
[1] = molecular target: T1, ObiH (Burkholderia diffusa, UniProt Z9H1N4SZ53); assay: LCMS detection of the β-hydroxy-α-amino acid product in coupled assay; assay type: biochemical
T1 sequence (Z9H1N4SZ53 1-440): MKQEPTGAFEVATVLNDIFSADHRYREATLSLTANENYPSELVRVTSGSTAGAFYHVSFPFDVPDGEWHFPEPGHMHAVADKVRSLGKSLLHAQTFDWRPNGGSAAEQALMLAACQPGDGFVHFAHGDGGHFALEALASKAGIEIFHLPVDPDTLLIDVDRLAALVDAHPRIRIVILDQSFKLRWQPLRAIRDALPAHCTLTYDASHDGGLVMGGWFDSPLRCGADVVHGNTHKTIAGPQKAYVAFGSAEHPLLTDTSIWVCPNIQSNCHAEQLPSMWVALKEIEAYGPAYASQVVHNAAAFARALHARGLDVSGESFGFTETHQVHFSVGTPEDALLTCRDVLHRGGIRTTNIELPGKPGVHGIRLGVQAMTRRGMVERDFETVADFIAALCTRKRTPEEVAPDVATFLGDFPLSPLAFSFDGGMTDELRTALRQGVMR

[2] = molecular target: T2, ObiF1 (Burkholderia diffusa, UniProt A0A5H1ZR44); assay: coupled ObiF1/F2/D/H reconstitution, LCMS product ion counts; assay type: biochemical; details: made in situ by ObiH from phenylacetaldehyde and L-Thr; 1 µM holo-ObiF1, 5 mM ATP, 2,3-DHB, GSH or DTT trap, pH 7.5, room temperature
T2 construct: full-length NRPS module C-A-PCP-TE-MLP (last residue Val1390), N-terminal His6, E. coli BL21(DE3), holo form (phosphopantetheinylated with Sfp and CoA); codon-optimised synthetic gene

[3] = molecular target: T3, ObiF2 (Burkholderia diffusa, UniProt Z9YLO8D081); assay: coupled ObiF1/F2/D/H reconstitution, LCMS of acyl adenylate and product ions; assay type: biochemical
T3 sequence (Z9YLO8D081 1-545): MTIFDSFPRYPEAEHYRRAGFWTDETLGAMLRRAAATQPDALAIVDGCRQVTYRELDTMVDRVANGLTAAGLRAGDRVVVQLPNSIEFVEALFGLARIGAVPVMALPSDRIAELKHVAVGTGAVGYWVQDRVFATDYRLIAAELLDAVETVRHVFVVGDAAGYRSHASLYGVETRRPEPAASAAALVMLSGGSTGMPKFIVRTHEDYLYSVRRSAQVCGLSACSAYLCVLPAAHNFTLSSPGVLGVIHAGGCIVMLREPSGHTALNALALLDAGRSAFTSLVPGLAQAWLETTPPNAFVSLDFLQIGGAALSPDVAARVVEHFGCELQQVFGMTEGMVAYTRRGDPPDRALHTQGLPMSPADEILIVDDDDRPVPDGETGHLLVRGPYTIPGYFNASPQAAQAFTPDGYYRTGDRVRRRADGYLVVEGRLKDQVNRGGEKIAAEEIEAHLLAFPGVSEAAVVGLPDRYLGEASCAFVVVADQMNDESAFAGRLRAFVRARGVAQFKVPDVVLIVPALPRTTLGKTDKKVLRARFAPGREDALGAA

[4] = molecular target: T2, ObiF1; assay: X-ray crystal structure, […] Å; assay type: binding; details: holo-ObiF1 co-crystallised with 2 mM ligand; bound in A domain active site (adenylate-forming conformation)
[5] = molecular target: ObiF1-del1304 (ObiF1 C-A-PCP-TE, terminated after Leu1303, without the MLP domain) (Burkholderia diffusa)

O=CCc1ccccc1 [1a, phenylacetaldehyde]
LCMS detection of the β-hydroxy-α-amino acid product in coupled assay [1]: Starting from phenylacetaldehyde (PAA), the L-Thr transaldolase ObiH generates

N[C@H](C(=O)O)[C@H](O)Cc1ccccc1 [2a, β-OH-homoPhe]
coupled ObiF1/F2/D/H reconstitution, LCMS product ion counts [2]: The best substrates for ObiF1 were β-hydroxy-α-amino acids (2a, 2b) derived from phenylacetaldehydes

O=C(O)c1ccccc1O [3c, 2-OH benzoic acid]
coupled ObiF1/F2/D/H reconstitution, LCMS of acyl adenylate and product ions [3]: 2-OH and 3-OH benzoic acids (3c and 3d) were both activated and converted efficiently

N[C@H](C(=O)O)[C@H](O)Cc1ccc([N+](=O)[O-])cc1 [β-OH-p-NO2-homoPhe, (2S,3R)-β-hydroxy-p-nitro-homophenylalanine]
X-ray crystal structure, 3.0 Å [4]: β-OH-p-NO2-homoPhe binds in the A domain active site

ObiF1 MLP domain, residues 1304-1390, co-expressed in trans from the construct ObiF1 rbs1303/4 (domain or fragment)
product ion counts by LCMS in the ObiF1/F2/D/H reconstitution assay, protein sample rbs1303/4 (C-A-PCP-TE co-expressed with the MLP domain), no MLP added (fold lower than WT) [5]: 4
